Results on two compounds are retold here after patent US20250326725A1, “PI4-Kinase Inhibitors and Methods of Using the Same” (The Board of Trustees of the Leland Stanford Junior …, priority 2019, published 2025).

A short description of data set [1]: Cell toxicity (CC50) in HPV assay.
Another data set deals with EV-71 virus. Nature of the data set: Survival of AG129 mice challenged with EV-71. In kind it is in vivo. Conditions: EV-71 10^6.5 CCID50/mouse i.p., treated b.i.d. for five days per os starting four hours post-infection. As to the method: FIG. 4 illustrates the survival of four-week-old AG129 mice challenged with EV-71 virus and treated with exemplary Compound B. Groups of eight AG129 nice were challenged with EV-71 at 10^6.5 CCID50/mouse via the i.p. route. Mice were treated b.i.d. for five days per os with doses of Compound B as shown, starting four hours post-infection. Placebo-treated mice received a vehicle control on the same schedule. Mice treated with IVIg, as a positive control, received a single administration of 100 mg/kg via the i.p. route four hours post-infection. […] (*P<0.05, **P<0.01).

Data set [2] is described as follows: Cell toxicity (CC50) in BK virus assay.
Data set [3] deals with Human HPV (Papillomaviridae). Nature of the data set: Human HPV antiviral assay (EC50). In kind it is cell-based, human papilloma virus. Conditions: Human papillomavirus, read-out: Human HPV (Papillomaviridae) EC50.
In data set [4] the test system is lung cancer cell lines. Nature of the data set: Migration and invasion in Boyden chambers. In kind it is cell-based, human. As to conditions: panel of lung cancer cell lines. As to the method: (§1) Human lung cancer cells (A549, H1299, H460, H23, H2122, and H3122) were cultured in RPMI 1640 containing 10% FBS. Cells were maintained at 37° C. in an incubator with a humidified atmosphere containing 5% CO2.
(§2) To assess the anti-cancer activity of exemplary PI4K antagonists, a panel of lung cancer cell lines annotated for the presence or absence of PI4K amplifications were treated with PI4K inhibitors (IN-9, TN-10, or compound B) that have greater than 1000-fold selectivity […] PI4KIIIβ over class I and class III PI3K family members. […] IC50 values were even lower with the presence of PI4K amplifications.
(§3) PI4KIIIβ is a target in human cancers, including lung adenocarcinoma. (FIG. 1A). PI4P concentrations in H2122 cells (dots) treated in triplicate (dots) with Compound B or vehicle dimethyl sulfoxide (DMS). (FIG. 1B) Relative densities of PI4-kinase-amplified (red) and -diploid (black) human lung adenocarcinoma cell lines determined by WST-1 assays after 5 days of Compound B treatment. Results expressed relative to the lowest dose, which was set at 100%. (FIG. 1B, right panel) Half maximal inhibitory (IC50) concentrations of compound B determined from FIG. 1B, left panel. (FIG. 1C) Migrated and invaded 1-23 human lung adenocarcinoma cells in Transwell chambers were photographed (images) and counted (bar graphs) after treatment with compound B. Results expressed relative to DMSO-treated cells, which were set at 1.0. (FIG. 1C, right panel). Colonies formed by H2122 human lung cancer cells in soft agarose (FIG. 1D) and on plastic (FIG. 1E) were photographed (images) and counted (bar graphs) after 7 days of treatment with the indicated doses of compound B or vehicle DMSO (0 M). Results expressed relative to DMSO control, which were set at 1.0. PI4-kinase inhibition leads to selective cytotoxicity for cancer cells (FIG. 1F).

Data set [5] deals with lung cancer cell lines. Nature of the data set: PI4P levels in lung cancer cell lines. As to conditions: panel of lung cancer cell lines. In kind it is cell-based, human. As for the experimental part: as §1, §2, §3
In data set [6] the test system is H2122 human orthotopic lung tumors. Nature of the data set: H2122 human orthotopic lung tumors in nu/nu mice. In kind it is in vivo. As to conditions: 20 or 40 mg/kg plus 20 mg/kg ritonavir, subcutaneously twice daily for three weeks. As to the method:
Mice received standard care and were euthanized according to the standards set forth by the Institutional Animal Care and Use Committee. To generate orthotopic lung tumors using human lung adenocarcinoma cell lines, nu/nu mice (n=10 mice per cohort) were subjected to intrathoracic injection with 10^6 human tumor cells, necropsied after a week or more of treatment, and primary tumor size and the number of metastases on the contralateral lung surface measured. […] Drugs were administered subcutaneously twice daily for three weeks. On the last day of treatment, mice were subjected to micro-computed tomography to measure primary tumor size. The following day, mice were necropsied to measure primary tumor size, count metastases to the contralateral lung, and obtain lung tissues for analysis. […] Drugs were administered intraperitoneally twice daily for 8 days. On the last day of treatment, mice were subjected to micro-computed tomography to measure primary tumor size. The following day, mice were necropsied to measure primary tumor size, count metastases to the contralateral lung, and obtain lung tissues.

Data set [7] relates to BK virus (Polyomaviridae). Nature of the data set: BK virus antiviral assay (EC50). As to conditions: Betapolyomavirus hominis. In kind it is cell-based.
The target in the next data set is T1, PI4KIIIalpha (Homo sapiens, UniProt P42356).
T1 construct: made in house; host or cells: COS-7 cells, transient transfection, anti-HA immunoprecipitate on protein G Sepharose beads
Nature of the data set: PI-kinase assay, PI4KIIIalpha (Table 4). In kind it is biochemical. As for the experimental part: (§4) PI-kinase assay: Compounds are tested in C.1.1. PT kinase assays as described by Shokat et al., “A membrane capture assay for lipid kinase activity.” Nat. Protoc. 2007; 2(10):2459-66.
(§5) General methods of materials: In the assays described here, p110α-p85 complex and p110γ were acquired from Millipore. Assays were performed with La-phosphatidylinositol (Avanti) as described in Knight et al. Nat Protoc. 2007; 2 (10):2459-66. Inhibitor series were prepared 10% DMSO as 5× stocks for the assay. Assays of HsVps34 were performed as described in Knight et al, except that the final assay buffer composition used was changed to 20 mM HEPES 7.5, 100 mM NaCl, 3 mM MgCl, 1 mg/mL PI and 44 nM hvps34 was used in the assay. […] COS-7 cells were cultured in 10 cm dishes and transfected at 70% confluence with 10 μg of plasmid DNA (HA-tagged bovine PI4KIIIβ. HA-tagged human PI4KIIIα) using Lipofectamine 2000 and 5 ml Opti-MEM following the manufacturer's instructions. After 5 hours the transfection medium was replaced with 10 ml complete DMEM. 36 hrs post transfection, cells were washed once with 5 ml PBS (pH 7.4) and lysed in 1 ml of lysis buffer (1) on ice. Lysates were collected by scraping and after 15 min they were centrifuged at 13.000 rpm for 10 min. To the lysates was added 200 gi of protein G Sepharose 4 fast flow beads that were prewashed with PBS and lysis buffer and 2 sg of anti-HA antibody. The tubes were then incubated overnight at 4 degrees C. in a tube rotator. The Sepharose beads in the lysate were washed twice with 150 mM NaCl in RIPA buffer, twice with RIPA buffer and once with kinase buffer (50 mM Tris/HCl, pH 7.5, 20 mM MgCl2, 1 mM EFTA, 1 mM PtdIns, 0.4% Triton X-100, 0.5 mg/mL BSA) and finally the beads were resuspended in 200 μL kinase buffer. Kinase reactions were run in a mixture of 45 μL of PI buffer (1 mM P1 in kinase buffer), 10 μL of immunoprecipitated beads, 2 µL of inhibitors (dissolved and diluted in DMSO) or DMSO and 5 μL of [γ-^32P]-ATP (1 mM and 2 μCi/tube). The immunoprecipitates in PI buffer were pre-incubated with the drugs for 20 min prior the initiation of kinase reaction by adding ATP and the reactions were carried out for 30 min in 15 ml polyproplyene tubes. Reactions were terminated by addition of 3 ml of CHCl3:CH3OH:HCl (200:100:0.75) followed by 0.6 ml of 0.61N HCl to induce phase separation. The mixtures were vortexed, centrifuged at 2000 rpm for 2 min and the upper phase was discarded. To the lower phase was added 1.5 ml of CHCl3:CH3OH:0.6N HCl (3:48:47) and the mixture vortexed and centrifuged at 2000 rpm for 2 ruin. The lower phase was then transferred to counting vials and evaporated. Samples were counted in a scintillation beta counter after adding 5 ml of Instafluor (Perkin-Elmer).
(§6) Selected compounds of Tables 1-3 were prepared and tested for inhibition activity in a variety of kinase assays.

Data set [8] has as its system lung cancer cell lines. Nature of the data set: Colony formation in soft agar and on plastic. In kind it is cell-based, human. Conditions: panel of lung cancer cell lines. As for the experimental part: as §1, §2, §3
In a further data set the target is T2, PI4KIIIbeta (Bos taurus, UniProt O02810).
T2 construct: made in house; host or cells: COS-7 cells, transient transfection, anti-HA immunoprecipitate on protein G Sepharose beads
Nature of the data set: PI-kinase assay, PI4KIIIbeta (Table 4). In kind it is biochemical, bovine. As for the experimental part:
as §4, §5, §6

For data set [9], the system named is lung cancer cell lines. Nature of the data set: Cell proliferation in monolayer culture (WST-1). In kind it is cell-based, human. Conditions: panel of lung cancer cell lines. As for the experimental part: as §1, §2, §3
The target of a further data set is PI3Kβ (Homo sapiens, UniProt P42338). Conditions: at concentrations up to 20 μM; cited from earlier work.
A further data set has as its target PI3Kα (Homo sapiens, UniProt P42336). Conditions: cited from earlier work.
A further data set deals with PI3KC2γ (Homo sapiens, UniProt O75747). As to conditions: cited from earlier work.
A further data set deals with PI4K2β (Homo sapiens, UniProt Q8TCG2). As to conditions: at concentrations up to 20 μM; cited from earlier work.
Another data set addresses PI4K2α (Homo sapiens, UniProt Q9BTU6). Conditions: at concentrations up to 20 μM; cited from earlier work.

PI3Kβ, sequence (P42338 whole entry, species assumed): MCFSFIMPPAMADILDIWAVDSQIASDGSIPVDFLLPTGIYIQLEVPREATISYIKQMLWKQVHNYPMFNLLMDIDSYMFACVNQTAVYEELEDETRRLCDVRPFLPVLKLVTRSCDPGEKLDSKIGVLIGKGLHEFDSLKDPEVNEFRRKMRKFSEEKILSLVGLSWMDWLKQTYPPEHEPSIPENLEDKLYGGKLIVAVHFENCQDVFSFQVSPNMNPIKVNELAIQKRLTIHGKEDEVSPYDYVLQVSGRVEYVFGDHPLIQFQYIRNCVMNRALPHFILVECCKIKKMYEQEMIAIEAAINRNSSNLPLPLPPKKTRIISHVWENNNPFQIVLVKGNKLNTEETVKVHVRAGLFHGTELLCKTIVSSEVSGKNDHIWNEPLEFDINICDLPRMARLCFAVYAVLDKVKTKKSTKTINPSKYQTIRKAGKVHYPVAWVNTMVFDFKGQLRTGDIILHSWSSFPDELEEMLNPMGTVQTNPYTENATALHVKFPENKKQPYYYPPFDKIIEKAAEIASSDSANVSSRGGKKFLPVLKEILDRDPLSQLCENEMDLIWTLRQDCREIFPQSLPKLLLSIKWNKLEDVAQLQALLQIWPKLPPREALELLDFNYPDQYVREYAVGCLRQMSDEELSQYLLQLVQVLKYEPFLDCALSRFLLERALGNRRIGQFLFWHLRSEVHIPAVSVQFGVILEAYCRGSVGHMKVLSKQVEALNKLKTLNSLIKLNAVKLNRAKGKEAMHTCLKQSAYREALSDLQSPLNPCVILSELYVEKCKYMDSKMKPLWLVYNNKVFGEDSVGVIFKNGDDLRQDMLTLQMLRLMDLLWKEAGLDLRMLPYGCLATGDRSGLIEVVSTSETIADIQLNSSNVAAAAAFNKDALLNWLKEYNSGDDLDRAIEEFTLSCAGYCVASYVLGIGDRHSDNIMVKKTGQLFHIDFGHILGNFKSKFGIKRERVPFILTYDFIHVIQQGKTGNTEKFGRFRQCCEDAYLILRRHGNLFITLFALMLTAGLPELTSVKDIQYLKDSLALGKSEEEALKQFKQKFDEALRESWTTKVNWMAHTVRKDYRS
PI3Kβ, sequence (P27986 whole entry partner, species assumed): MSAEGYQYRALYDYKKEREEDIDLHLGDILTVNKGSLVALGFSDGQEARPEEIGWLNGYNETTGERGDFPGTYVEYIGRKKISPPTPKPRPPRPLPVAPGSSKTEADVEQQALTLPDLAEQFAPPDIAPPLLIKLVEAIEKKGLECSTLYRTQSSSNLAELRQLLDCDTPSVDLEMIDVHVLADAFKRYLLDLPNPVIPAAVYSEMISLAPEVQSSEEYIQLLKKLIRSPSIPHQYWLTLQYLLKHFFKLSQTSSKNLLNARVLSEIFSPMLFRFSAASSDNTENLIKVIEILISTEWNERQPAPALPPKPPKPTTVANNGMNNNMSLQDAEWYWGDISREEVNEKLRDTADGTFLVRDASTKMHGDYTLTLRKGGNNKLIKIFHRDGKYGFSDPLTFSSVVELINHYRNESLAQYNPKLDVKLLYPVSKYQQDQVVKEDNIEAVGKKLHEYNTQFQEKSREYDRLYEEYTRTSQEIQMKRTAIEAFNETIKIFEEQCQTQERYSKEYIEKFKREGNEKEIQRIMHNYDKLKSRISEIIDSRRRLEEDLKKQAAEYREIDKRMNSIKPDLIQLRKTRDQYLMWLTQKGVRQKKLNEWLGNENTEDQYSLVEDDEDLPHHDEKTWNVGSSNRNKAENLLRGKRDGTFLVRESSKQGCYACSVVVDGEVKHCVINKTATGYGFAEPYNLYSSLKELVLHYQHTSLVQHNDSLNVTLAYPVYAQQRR
T1 sequence (P42356 whole entry): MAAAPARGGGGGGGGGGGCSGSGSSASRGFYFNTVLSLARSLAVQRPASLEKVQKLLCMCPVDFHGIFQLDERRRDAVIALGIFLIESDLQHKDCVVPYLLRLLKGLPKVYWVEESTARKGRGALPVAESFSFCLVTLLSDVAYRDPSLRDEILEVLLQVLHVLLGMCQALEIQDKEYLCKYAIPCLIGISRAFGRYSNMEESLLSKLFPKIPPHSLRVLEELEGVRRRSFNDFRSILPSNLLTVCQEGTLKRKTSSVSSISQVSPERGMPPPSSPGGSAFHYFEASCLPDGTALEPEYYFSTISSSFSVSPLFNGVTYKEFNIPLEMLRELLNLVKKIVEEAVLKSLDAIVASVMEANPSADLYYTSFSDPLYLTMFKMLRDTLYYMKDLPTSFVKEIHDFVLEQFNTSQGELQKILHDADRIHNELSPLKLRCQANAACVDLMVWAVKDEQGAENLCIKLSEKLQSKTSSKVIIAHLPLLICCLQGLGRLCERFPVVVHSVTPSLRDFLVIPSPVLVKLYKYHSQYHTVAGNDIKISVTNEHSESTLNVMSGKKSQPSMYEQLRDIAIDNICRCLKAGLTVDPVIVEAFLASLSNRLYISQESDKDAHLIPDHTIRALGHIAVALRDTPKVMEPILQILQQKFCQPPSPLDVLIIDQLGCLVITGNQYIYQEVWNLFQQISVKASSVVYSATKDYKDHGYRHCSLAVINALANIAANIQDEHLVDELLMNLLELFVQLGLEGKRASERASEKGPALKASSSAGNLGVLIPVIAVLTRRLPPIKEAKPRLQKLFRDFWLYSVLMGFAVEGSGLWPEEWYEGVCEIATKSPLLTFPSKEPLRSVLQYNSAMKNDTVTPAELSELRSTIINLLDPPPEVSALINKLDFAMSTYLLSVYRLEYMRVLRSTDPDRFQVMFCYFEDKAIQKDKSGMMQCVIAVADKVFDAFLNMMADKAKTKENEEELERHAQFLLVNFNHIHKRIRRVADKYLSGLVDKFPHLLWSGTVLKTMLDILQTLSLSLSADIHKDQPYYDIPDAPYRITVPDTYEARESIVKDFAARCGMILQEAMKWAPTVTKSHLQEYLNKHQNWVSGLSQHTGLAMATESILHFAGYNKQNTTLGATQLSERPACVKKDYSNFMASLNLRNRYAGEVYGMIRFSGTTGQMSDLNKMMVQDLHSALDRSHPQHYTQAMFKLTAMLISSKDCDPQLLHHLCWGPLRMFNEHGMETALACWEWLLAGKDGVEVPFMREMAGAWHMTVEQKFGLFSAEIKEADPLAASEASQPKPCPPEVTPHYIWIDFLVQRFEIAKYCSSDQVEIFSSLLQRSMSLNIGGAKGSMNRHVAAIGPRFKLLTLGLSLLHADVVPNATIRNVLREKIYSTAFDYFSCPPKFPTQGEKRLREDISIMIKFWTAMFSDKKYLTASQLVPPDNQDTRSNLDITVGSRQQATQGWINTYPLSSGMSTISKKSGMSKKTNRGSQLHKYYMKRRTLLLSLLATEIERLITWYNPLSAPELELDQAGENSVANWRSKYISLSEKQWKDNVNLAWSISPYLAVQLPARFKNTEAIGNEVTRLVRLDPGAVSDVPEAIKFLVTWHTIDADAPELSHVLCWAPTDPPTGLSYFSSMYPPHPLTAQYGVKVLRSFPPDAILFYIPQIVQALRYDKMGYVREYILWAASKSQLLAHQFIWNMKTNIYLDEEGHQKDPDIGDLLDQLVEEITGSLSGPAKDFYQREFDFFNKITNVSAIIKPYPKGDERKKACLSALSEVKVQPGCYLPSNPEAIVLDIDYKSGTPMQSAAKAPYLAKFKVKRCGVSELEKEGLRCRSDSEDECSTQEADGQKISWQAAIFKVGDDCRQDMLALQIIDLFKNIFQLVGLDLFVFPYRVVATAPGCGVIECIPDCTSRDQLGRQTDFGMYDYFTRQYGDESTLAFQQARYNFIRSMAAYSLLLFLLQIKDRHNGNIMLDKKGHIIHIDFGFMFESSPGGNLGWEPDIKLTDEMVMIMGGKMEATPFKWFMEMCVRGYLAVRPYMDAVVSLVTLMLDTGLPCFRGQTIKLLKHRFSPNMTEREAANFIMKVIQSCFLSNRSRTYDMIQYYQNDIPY
PI3Kα, sequence (P42336 whole entry, species assumed): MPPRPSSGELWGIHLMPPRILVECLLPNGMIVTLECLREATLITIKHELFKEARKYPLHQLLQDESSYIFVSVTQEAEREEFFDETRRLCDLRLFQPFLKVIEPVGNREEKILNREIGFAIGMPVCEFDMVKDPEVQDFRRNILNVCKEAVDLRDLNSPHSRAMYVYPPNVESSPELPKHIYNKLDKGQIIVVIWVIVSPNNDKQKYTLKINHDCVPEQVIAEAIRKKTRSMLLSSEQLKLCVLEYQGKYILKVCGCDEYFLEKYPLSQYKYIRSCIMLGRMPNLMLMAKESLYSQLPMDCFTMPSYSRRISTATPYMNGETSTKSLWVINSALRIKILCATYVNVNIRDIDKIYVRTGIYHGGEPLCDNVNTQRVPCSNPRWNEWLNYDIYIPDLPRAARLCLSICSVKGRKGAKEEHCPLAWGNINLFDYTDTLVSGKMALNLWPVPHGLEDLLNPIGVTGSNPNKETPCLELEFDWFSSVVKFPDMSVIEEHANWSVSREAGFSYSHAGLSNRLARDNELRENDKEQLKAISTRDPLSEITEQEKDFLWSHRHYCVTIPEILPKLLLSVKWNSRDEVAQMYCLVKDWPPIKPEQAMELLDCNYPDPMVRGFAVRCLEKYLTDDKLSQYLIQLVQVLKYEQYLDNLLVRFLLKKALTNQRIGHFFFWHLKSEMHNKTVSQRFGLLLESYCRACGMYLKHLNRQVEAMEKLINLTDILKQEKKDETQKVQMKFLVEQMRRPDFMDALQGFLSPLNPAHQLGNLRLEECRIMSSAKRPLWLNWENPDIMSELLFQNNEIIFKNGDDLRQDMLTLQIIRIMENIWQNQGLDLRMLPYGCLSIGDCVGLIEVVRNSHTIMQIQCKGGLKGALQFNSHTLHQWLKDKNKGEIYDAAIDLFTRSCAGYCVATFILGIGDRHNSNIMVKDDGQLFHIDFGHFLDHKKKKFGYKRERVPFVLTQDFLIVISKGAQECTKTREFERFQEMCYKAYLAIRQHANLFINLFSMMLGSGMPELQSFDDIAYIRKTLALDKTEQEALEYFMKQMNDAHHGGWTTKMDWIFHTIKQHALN
PI3Kα, sequence (P27986 whole entry partner, species assumed): as the sequence (P27986 whole entry partner, species assumed) above

For the compound `COc1ccc(-c2sc(NC(C)C3CCOCC3)nc2C)cc1S(=O)(=O)Nc1ccccc1Cl` (stereo not shown) [Compound B], the CC50 was 131000 nM in [1] and above 100000 nM in data set [2]. Also, the survival entry in the data set on EV-71 virus was “A dose response was observed in survival”. The figures for the EC50 in [3] and in data set [7] were 2100 nM and 19 nM, respectively. Further, the “migration and invasion in Boyden chambers” value in the data set on lung cancer cell lines [4] is reported as “reduced”. Moreover, in the data set on lung cancer cell lines [5], the PI4P levels entry was “decreased PI4P levels in a dose-dependent fashion”. Moreover, in data set [6], the metastases entry is given as “No metastases were detectable”. Moreover, the “sizes of the primary tumors vs vehicle alone” value in [6] is reported as “smaller”. Further, the figures for the IC50 on PI4KIIIalpha and at PI4KIIIbeta were above 10000 nM and below 100 nM, respectively. Also, in the data set with lung cancer cell lines [8], the “colony formation in soft agar and on plastic” value is given as “reduced”. Also, in the data set with lung cancer cell lines [9], the “cell proliferation in monolayer culture” value is “reduced cell proliferation in monolayer culture”.
Consider `COc1ccc(-c2sc(NC(=O)C(C)(C)C)nc2C)cc1S(=O)(=O)Nc1ccc(O)cc1` [PI4KIIIbeta-IN-10], for which the “inhibition of PI3Kβ” value at PI3Kβ is on record as below 20%. Further, the results for the IC50 at PI3Kα and on PI3KC2γ were around 10000 nM and around 1000 nM, respectively. For the same compound, at PI4K2β, the “inhibition of PI4K2β” value is recorded as below 20%. The “migration and invasion in Boyden chambers” value in the data set with lung cancer cell lines [4] is listed as “reduced”. Besides, in the data set with lung cancer cell lines [5], the PI4P levels result is reported as “decreased PI4P levels in a dose-dependent fashion”. In the data set on lung cancer cell lines [8], the “colony formation in soft agar and on plastic” value is given as “reduced”. For the same compound, the “cell proliferation in monolayer culture” value in the data set with lung cancer cell lines [9] is reported as “reduced cell proliferation in monolayer culture”. Further, the “inhibition of PI4K2α” value on PI4K2α is below 20%.
